pIC50: −log10 of the molar value.
Target: T1, purified human recombinant MTH1 (human MTH1, residues 42-197) (Homo sapiens, UniProt P36639)
T1 construct: human MTH1, residues 42-197, Uniprot-ID: P36639, expressed in E. coli; made in house; host or cells: E. coli
Test: MTH1 enzymatic assay (luminescence-based, PPiLight)
Assay type: biochemical
Conditions: 6 μM 8-oxo-dGTP, Table 1, grouped
Description: The IC50 value was determined by a MTH1 enzymatic assay. The assay comprises the principal steps of incubating a mixture of MTH1, the compound in question at different concentrations and 8-oxo-2′-deoxyguanosine-5′-triphosphate (8-oxo-dGTP) in assay buffer. Nucleotide triphosphate hydrolysis by MTH1, i.e. decomposition of 8-oxo-2′-deoxyguanosine-5′-triphosphate, produces 8-oxo-2′-deoxyguanosine-5′-monophosphate (8-oxo-dGMP) and pyrophosphate (PPi). The amount of generated pyrophosphate (PPi) is then measured by a bioluminescent reaction. In detail: The MTH1 (human mutT homologue 1) enzymatic assay is performed as a luminescence-based 384-well assay. […] The assay buffer contains 100 mM Tris-acetate pH 7.5, 40 mM NaCl, 10 mM Mg(OAc)2, 0.005% Tween 20 and 2 mM dithiothreitol (DTT). […] Then, in a second step, the substrate 8-oxo-dGTP is added and the reaction mixture is incubated for 30 minutes at 22° C. The pharmacologically relevant assay volume is 5 PI. The final concentrations in the assay during incubation of the reaction mixture are 0.1-0.2 nM, typically 0.1 nM, MTH1 and 6 μM 8-oxo-dGTP. After incubation of the reaction mixture, the generation of pyrophosphate (PPi) as a result of nucleotide triphosphate (8-oxo-dGTP) hydrolysis by MTH1 is detected using the PPiLight inorganic pyrophosphate assay kit (Lonza) (third step). 2 to 5 μl, such as 3 to 5 μl, typically 3 or 4 μl, for instance 4 μl, of a 1:1 mixture of PPiLight converting reagent (AMP) and PPiLight detection reagent are added to the reaction mixture. In the presence of pyrophosphate, the detection reagent catalyzes the conversion of AMP to ATP. Luciferase then produces light from the newly formed ATP and luciferin. The amount of light produced is directly proportional to the amount of PPi in the sample. Following signal development for 1 h the plates are analysed in an EnVision (PerkinElmer) microplate reader using the ultra sensitive luminescence option. Data are processed employing the Genedata Screener software. In particular, IC50 values are determined in the usual manner (using the Hill Equation) by fitting a dose-response curve to the data points using nonlinear regression analysis.
Hill Equation: Y=S0+(Sinf−S0)/(1+(10^logIC50/10^c)^n); Y: luminescence signal (response), S0: activity level at zero concentration of test compound, Sinf=activity level at infinite concentration, Hill coefficient n=measure of the slope at IC50, c=concentration in logarithmic units corresponding to the values on the x-axis of the dose response curve plot

| SMILES | pIC50 |
| --- | --- |
| Nc1nc(NC2CC2)cc(N2CCC[C@@H]2CO)n1 [Example 11, [(R)-1-(2-amino-6-cyclopropylamino-pyrimidin-4-yl)-pyrrolidin-2-yl]-methanol-formate] | 7.00 to 9.00 |
| Nc1nc(NC2CC2)cc(N2CCC[C@H]2CO)n1 [Example 13, [(S)-1-(2-amino-6-cyclopropylamino-pyrimidin-4-yl)-pyrrolidin-2-yl]-methanol] | 7.00 to 9.00 |
| CNc1cc(N2CCC(c3ccccc3)C2=O)nc(N)n1 (centres unmarked) [Example 103, 1-(2-Amino-6-methylamino-pyrimidin-4-yl)-3-phenyl-pyrrolidin-2-one] | 7.00 to 9.00 |
| CNc1cc(N2CC[C@H](CO)C2)nc(N)n1 [Example 65, [(S)-1-(2-Amino-6-methylamino-pyrimidin-4-yl)-pyrrolidin-3-yl]-methanol] | > 9.00 |
| CCNc1cc(N2CCC(F)(F)C2)nc(N)n1 [Example 68, 6-(3,3-Difluoro-pyrrolidin-1-yl)-N4-ethyl-pyrimidine-2,4-diamine] | 7.00 to 9.00 |
| COC1CCN(c2cc(NC3CC3)nc(N)n2)C1 (centres unmarked) [Example 10, N^4-cyclopropyl-6-(3-methoxy-pyrrolidin-1-yl)-pyri midine-2,4-diamine-formate] | 7.00 to 9.00 |
| CNc1cc(N2CCCC(O)(c3ccccc3)C2)nc(N)n1 (centres unmarked) [Example 79, 1-(2-Amino-6-methylamino-pyrimidin-4-yl)-3-phenyl-piperidin-3-ol] | 7.00 to 9.00 |
| Nc1nc(NC2CC2)cc(N2CCC(CO)C2)n1 (centres unmarked) [Example 2, [1-(2-amino-6-cyclopropyl amino-pyrimidin-4-yl)-pyrrolidin-3-yl]-methanol] | > 9.00 |
| CNc1cc(N2CC(c3ccccc3)CC2=O)nc(N)n1 (centres unmarked) [Example 96, 1-(2-Amino-6-methylamino-pyrimidin-4-yl)-4-phenyl-pyrrolidin-2-one] | < 7.00 |
| CNc1cc(N2CCC[C@H]2CO)nc(N)n1 [Example 12, [(S)-1-(2-amino-6-methylamino-pyrimidin-4-yl)-pyrrolidin-2-yl]-methanol] | 7.00 to 9.00 |
| Nc1nc(NC2CC2)cc(N2CCC(O)(C(F)(F)F)C2)n1 (centres unmarked) [Example 42, 1-(2-Amino-6-cyclopropylamino-pyrimidin-4-yl)-3-trifluoromethyl-pyrrolidin-3-ol] | 7.00 to 9.00 |
| CC1C(c2ccccc2)CCN1c1cc(NC2CC2)nc(N)n1 (centres unmarked) [Example 41, N4-Cyclopropyl-6-(2-methyl-3-phenyl-pyrrolidin-1-yl)-pyrimidine-2,4-diamine] | 7.00 to 9.00 |
| CNc1cc(N2CCCC2C(C)(C)c2ccccc2)nc(N)n1 (centres unmarked) [Example 83, N4-Methyl-6-[2-(1-methyl-1-phenylethyl)-pyrrolidin-1-yl]-pyrimidine-2,4-diamine] | > 9.00 |
| CNc1cc(N2CC[C@@H](CO)C2)nc(N)n1 [Example 64, [(R)-1-(2-Amino-6-methylamino-pyrimidin-4-yl)-pyrrolidin-3-yl]-methanol] | > 9.00 |
| Nc1nc(NC2CC2)cc(N2CC[C@H](CO)C2)n1 [Example 67, [(S)-1-(2-Amino-6-cyclopropylamino-pyrimidin-4-yl)-pyrrolidin-3-yl]-methanol] | 7.00 to 9.00 |
| NC(=O)[C@H]1CCN(c2cc(NC3CC3)nc(N)n2)C1 [Example 61, (S)-1-(2-Amino-6-cyclopropylamino-pyrimidin-4-yl)-pyrrolidine-3-carboxylic acid amide] | 7.00 to 9.00 |
| CNc1cc(N2CCC(CO)C2)nc(N)n1 (centres unmarked) [Example 1, [1-(2-amino-6-methylamino-pyrimidin-4-yl)-pyrrolidin-3-yl]-methanol] | > 9.00 |
| CNc1cc(N2CCCC2c2ccsc2)nc(N)n1 (centres unmarked) [Example 111, N4-Methyl-6-(2-thiophen-3-yl-pyrrolidin-1-yl)-pyrimidine-2,4-diamine] | > 9.00 |
| Nc1nc(NC2CC2)cc(N2CCCC2C(=O)O)n1 (centres unmarked) [Example 80, 1-(2-Amino-6-cyclopropylamino-pyrimidin-4-yl)-pyrrolidine-2-carboxylic acid] | < 7.00 |
| CCC1(O)CCN(c2cc(NC3CC3)nc(N)n2)C1 (centres unmarked) [Example 40, 1-(2-Amino-6-cyclopropylamino-pyrimidin-4-yl)-3-ethyl-pyrrolidin-3-ol] | 7.00 to 9.00 |
| CC(C)Nc1cc(N2CCC(F)(F)C2)nc(N)n1 [Example 69, 6-(3,3-Difluoro-pyrrolidin-1-yl)-N4-isopropyl-pyrimidine-2,4-diamine] | 7.00 to 9.00 |

| SMILES | pIC50 |
| --- | --- |
| NC(=O)[C@@H]1CCN(c2nc(N)nc3c2CCCN3)C1 [Example 75, (R)-1-(2-Amino-5,6,7,8-tetrahydro-pyrido[2,3-d]pyrimidin-4-yl)-pyrrolidine-3-carboxylic acid amide-trifluoroacetate] | < 7.00 |
| CNc1cc(N2CCCCC2Cc2ccccc2OC)nc(N)n1 (single isomer, unassigned) [Example 106] | > 9.00 |
| CNc1cc(N2CCCC2Cc2ccccc2C)nc(N)n1 (centres unmarked) [Example 89, N4-Methyl-6-[2-(2-methyl-benzyl)-pyrrolidin-1-yl]-pyrimidine-2,4-diamine] | > 9.00 |
| CNc1cc(N2CCCC2C2CCCC2)nc(N)n1 (centres unmarked) [Example 102, 6-(2-Cyclopentyl-pyrrolidin-1-yl)-N4-methyl-pyrimidine-2,4-diamine] | > 9.00 |
| CNc1cc(N2CCC[C@@H]2Cc2ccccc2OC)nc(N)n1 [Example 93, 6-[(R)-2-(2-Methoxy-benzyl)-pyrrolidin-1-yl]-N4-methyl-pyrimidine-2,4-diamine] | > 9.00 |
| Nc1nc(NC2CC2)cc(N2CC[C@@H](CO)C2)n1 [Example 66, [(R)-1-(2-Amino-6-cyclopropylamino-pyrimidin-4-yl)-pyrrolidin-3-yl]-methanol] | > 9.00 |
| Nc1nc(NC2CC2)cc(N2CCCC2Cc2ccccc2Cl)n1 (centres unmarked) [Example 36, 6-[2-(2-Chloro-benzyl)-pyrrolidin-1-yl]-N4-cyclopropyl-pyrimidine-2,4-diamine] | > 9.00 |
| Nc1nc2c(c(N3CC[C@H](O)C3)n1)CCCN2 [Example 73, (S)-1-(2-Amino-5,6,7,8-tetrahydro-pyrido[2,3-d]pyrimidin-4-yl)-pyrrolidin-3-ol-formiate] | 7.00 to 9.00 |
| CC1CCN(c2cc(NC3CC3)nc(N)n2)C1C (centres unmarked) [Example 39, N4-Cyclopropyl-6-(2,3-dimethyl-pyrrolidin-1-yl)-pyrimidine-2,4-diamine] | 7.00 to 9.00 |
| Nc1nc2c(c(N3CC[C@@H](O)C3)n1)CCCN2 [Example 70, (R)-1-(2-Amino-5,6,7,8-tetrahydro-pyrido[2,3-d]pyrimidin-4-yl)-pyrrolidin-3-ol] | > 9.00 |
| Nc1nc(NC2CC2)cc(N2CCC(F)(F)C2)n1 [Example 4, N^4-cyclopropyl-6-(3,3-difluoro-pyrrolidin-1-yl)-pyrimidine-2,4-diamine] | 7.00 to 9.00 |
| CNc1cc(N2CCC(OC)C2)nc(N)n1 (centres unmarked) [Example 9, 86-(3-methoxy-pyrrolidin-1-yl)-N^4-methyl-pyrimidine-2,4-diamine-formate] | > 9.00 |
| Nc1nc(NC2CC2)cc(N2CC[C@](O)(c3ccccc3)C2)n1 (single isomer, unassigned) [Example 37] | 7.00 to 9.00 |
| Cc1ccc(CCNc2cc(N3CCC(F)(F)C3)nc(N)n2)cc1 [Example 145, 6-(3,3-Difluoro-pyrrolidin-1-yl)-N4-(2-p-tolyl-ethyl)-pyrimidine-2,4-diamine-formiate] | 7.00 to 9.00 |
| Nc1nc(NC2CC2)cc(N2CCCC2C(=O)NCCc2ccc(S(=O)(=O)F)cc2)n1 (centres unmarked) [Example 119, 4-(2-{[1-(2-Amino-6-cyclopropylamino-pyrimidin-4-yl)-pyrrolidine-2-carbonyl]-amino}-ethyl)-benzenesulfonyl fluoride] | 7.00 to 9.00 |
| Nc1nc(NCC2CC2)cc(N2CCC(F)(F)C2)n1 [Example 71, N4-Cyclopropylmethyl-6-(3,3-difluoro-pyrrolidin-1-yl)-pyrimidine-2,4-diamine] | 7.00 to 9.00 |
| CNc1cc(N2CC[C@@H](O)C2)nc(N)n1 [Example 60, (R)-1-(2-Amino-6-methylamino-pyrimidin-4-yl)-pyrrolidin-3-ol] | 7.00 to 9.00 |
| Nc1nc(NC2CC2)cc(N2CC[C@@](O)(c3ccccc3)C2)n1 (single isomer, unassigned) [Example 38] | 7.00 to 9.00 |
| CCCNc1cc(N2CCC(F)(F)C2)nc(N)n1 [Example 72, 6-(3,3-Difluoro-pyrrolidin-1-yl)-N4-propyl-pyrimidine-2,4-diamine] | 7.00 to 9.00 |
| Nc1nc(NC2CC2)cc(N2CCC(O)C2)n1 (centres unmarked) [Example 6, 1-(2-amino-6-cyclopropylamino-pyrimidin-4-yl)-pyrrolidin-3-ol] | 7.00 to 9.00 |
